Measurements: US6737383B1, “Herbicidal oxadiazolidines” (priority 1999, dated 2004)

Legend:
purple nutsedge = experiment: Test B pre/postemergence purple nutsedge; type: in vivo, Cyperus rotundus
Summary of the method: (§1)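 Response is a visual 0-to-10 score relative to untreated plants, where 0 means no effect and 10 means complete control, taken twelve to sixteen days after application. Treatments went onto soil at planting and onto foliage of 1- to 4-leaf plants, using a surfactant-containing non-phytotoxic solvent.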

duck salad = experiment: Test B flood test duck salad; type: in vivo, Heteranthera limosa
Summary of the method: (§2)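 Read-out is a visual response score from 0 (no effect) to 10 (complete control), assigned by comparison with untreated controls. Treatment was applied at the 2-leaf stage, and plants stayed in the greenhouse for twelve to sixteen days before scoring.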

morningglory = experiment: Test B pre/postemergence morningglory; type: in vivo, Ipomoea hederacea
Summary of the method: as §1

pigweed = experiment: Test B pre/postemergence pigweed; type: in vivo, Amaranthus retroflexus
Summary of the method: as §1

bamyardgrass = experiment: Test B flood test barnyardgrass; type: in vivo, Echinochloa crus-galli
Summary of the method: as §2

blackgrass = experiment: Test B pre/postemergence blackgrass; type: in vivo, Alopecurus myosuroides
Summary of the method: as §1

soybean = experiment: Test B pre/postemergence soybean; type: in vivo, Glycine max
Summary of the method: as §1

rape = experiment: Test B pre/postemergence rape; type: in vivo, Brassica napus
Summary of the method: as §1

sugar beet = experiment: Test B pre/postemergence sugar beet; type: in vivo, Beta vulgaris; conditions: for Plant response rating, Sugarbeets: Rate 250 g/ha
Summary of the method: as §1

giant foxtail = experiment: Test B pre/postemergence giant foxtail; type: in vivo, Setaria faberii
Summary of the method: as §1

velvetleaf = experiment: Test B pre/postemergence velvetleaf; type: in vivo, Abutilon theophrasti; conditions: for Plant response rating, Velvetleaf: Rate 250 g/ha
Summary of the method: as §1

cocklebur = experiment: Test B pre/postemergence cocklebur; type: in vivo, Xanthium strumarium
Summary of the method: as §1

surinam grass = experiment: Test B pre/postemergence surinam grass; type: in vivo, Brachiaria decumbens
Summary of the method: as §1

corn = experiment: Test B pre/postemergence corn; type: in vivo, Zea mays
Summary of the method: as §1

bedstraw = experiment: Test B pre/postemergence bedstraw; type: in vivo, Galium aparine
Summary of the method: as §1

smallflower flatsedge = experiment: Test B flood test smallflower flatsedge; type: in vivo, Cyperus difformis
Summary of the method: as §2

[1] = Postemergence, Rate 62 g/ha, scale 0 to 10, 0 is no effect, 10 is complete control
[2] = Postemergence, Rate 125 g/ha, scale of 0 to 10 where 0 is no effect and 10 is complete control
[3] = Postemergence, Rate 250 g/ha, scale 0 to 10, 0 no effect, 10 complete control
[4] = Preemergence, Rate 62 g/ha, scale 0 to 10 (0 no effect, 10 complete control)
[5] = Preemergence, Rate 125 g/ha, scale 0 to 10 (0 no effect, 10 complete control)
[6] = Preemergence, Rate 250 g/ha, scale of 0 to 10 where 0 is no effect and 10 is complete control
[7] = Preemergence, Rate 500 g/ha, scale 0 (no effect) to 10 (complete control)
[8] = Rate 500 g/ha, Postemergence, scale 0 to 10, 0 no effect, 10 complete control
[9] = Postemergence (flood test species), Rate 125 g/ha, scale of 0 to 10 where 0 is no effect and 10 is complete control
[10] = Rate 500 g/ha, listed under Postemergence (flood test species), scale 0 to 10, 0 no effect, 10 complete control
[11] = flood test, listed under Postemergence, Rate 250 g/ha, scale 0 to 10, 0 no effect, 10 complete control
[12] = Rate 250 g/ha, Postemergence, scale 0 to 10, 0 is no effect, 10 is complete control
[13] = Preemergence, Rate 125 g/ha, 0 is no effect, 10 is complete control
[14] = Preemergence, scale of 0 to 10 where 0 is no effect and 10 is complete control
[15] = Postemergence, scale 0 to 10, 0 is no effect, 10 is complete control
[16] = Rate 125 g/ha, Postemergence, scale 0 to 10, 0 no effect, 10 complete control

In the case of Cc1nn(C)c(Cl)c1-n1c(=O)on(C(=O)N(c2ccc(F)cc2F)C(C)C)c1=O [Compound 96], the “Nutsedge plant response rating” value (purple nutsedge; [1]) is reported as 0, the “Nutsedge plant response rating” value (purple nutsedge; [2]) is reported as 0 and the “Nutsedge plant response rating” value (purple nutsedge; [3]) is reported as 0. The “Nutsedge plant response rating” value (purple nutsedge; [4]) was 0, the “Plant response rating, Nutsedge” value (purple nutsedge; [5]) was 0 and the “Plant response rating, Nutsedge” value (purple nutsedge; [6]) was 0. The “Nutsedge plant response rating” value (purple nutsedge; [7]) was 0, the “Nutsedge plant response rating” value (purple nutsedge; [8]) was 0 and the “Ducksalad plant response rating” value (duck salad; [9]) was 0. For the same compound, the “Ducksalad plant response rating” value (duck salad; [1]) was 0, the “Ducksalad plant response rating” value (duck salad; [10]) was 0 and the “Ducksalad plant response rating” value (duck salad; [11]) was 0. The “Morningglory plant response rating” value (morningglory; [1]) was 1, the “Morningglory plant response rating” value (morningglory; [2]) was 1 and the “Morningglory plant response rating” value (morningglory; [3]) was 1. For the same compound, the “Morningglory plant response rating” value (morningglory; [4]) was 0, the “Plant response rating, Morningglory” value (morningglory; [5]) was 0 and the “Plant response rating, Morningglory” value (morningglory; [6]) was 0. The “Morningglory plant response rating” value (morningglory; [7]) was 0, the “Morningglory plant response rating” value (morningglory; [8]) was 2 and the “Redroot pigweed plant response rating” value (pigweed; [1]) was 0. For the same compound, the “Redroot pigweed plant response rating” value (pigweed; [2]) was 0, the “Plant response rating, Redroot pigweed” value (pigweed; [5]) was 6 and the “Plant response rating, Redroot pigweed” value (pigweed; [6]) was 7. The “Redroot pigweed plant response rating” value (pigweed; [7]) was 8, the “Plant response rating, Redroot pigweed” value (pigweed; [12]) was 0 and the “Redroot pigweed plant response rating” value (pigweed; [8]) was 0. The “Barnyardgrass plant response rating” value (bamyardgrass; [1]) was 0, the “Barnyardgrass plant response rating” value (bamyardgrass; Rate 125 g/ha, Postemergence section (flood test species), scale 0 to 10, 0 no effect, 10 complete control) was 0 and the “Barnyardgrass plant response rating” value (bamyardgrass; [10]) was 0. The “Barnyardgrass plant response rating” value (bamyardgrass; [11]) was 0, the “Blackgrass plant response rating” value (blackgrass; [1]) was 0 and the “Blackgrass plant response rating” value (blackgrass; [2]) was 0. The “Blackgrass plant response rating” value (blackgrass; [3]) was 0, the “Blackgrass plant response rating” value (blackgrass; [4]) was 0 and the “Plant response rating, Blackgrass” value (blackgrass; [5]) was 3. The “Plant response rating, Blackgrass” value (blackgrass; [6]) was 3, the “Blackgrass plant response rating” value (blackgrass; [7]) was 8 and the “Blackgrass plant response rating” value (blackgrass; [8]) was 0. For the same compound, the “Soybean plant response rating” value (soybean; [1]) was 1, the “Soybean plant response rating” value (soybean; [2]) was 1 and the “Soybean plant response rating” value (soybean; [4]) was 0. For the same compound, the “Plant response rating, Soybean” value (soybean; [5]) was 0, the “Plant response rating, Soybean” value (soybean; [6]) was 0 and the “Soybean plant response rating” value (soybean; [7]) was 0. The “Plant response rating, Soybean” value (soybean; [12]) was 1, the “Soybean plant response rating” value (soybean; [8]) was 1 and the “Rape plant response rating” value (rape; [1]) was 0. For the same compound, the “Rape plant response rating” value (rape; [2]) was 0, the “Rape plant response rating” value (rape; [3]) was 0 and the “Rape plant response rating” value (rape; [4]) was 0. For the same compound, the “Plant response rating, Rape” value (rape; [5]) was 0, the “Plant response rating, Rape” value (rape; [6]) was 0 and the “Rape plant response rating” value (rape; [7]) was 3. For the same compound, the “Rape plant response rating” value (rape; [8]) was 0, the “Sugarbeets plant response rating” value (sugar beet; [1]) was 0 and the “Sugarbeets plant response rating” value (sugar beet; [2]) was 0. The “Sugarbeets plant response rating” value (sugar beet; [4]) was 0, the “Sugarbeets plant response rating (0 to 10 scale)” value (sugar beet; [13]) was 0 and the “Plant response rating, Sugarbeets” value (sugar beet; [14]) was 0. For the same compound, the “Sugarbeets plant response rating” value (sugar beet; [7]) was 2, the “Plant response rating, Sugarbeets” value (sugar beet; [15]) was 0 and the “Sugarbeets plant response rating” value (sugar beet; [8]) was 0. For the same compound, the “Giant foxtail plant response rating” value (giant foxtail; [1]) was 0, the “Giant foxtail plant response rating” value (giant foxtail; [2]) was 0 and the “Giant foxtail plant response rating” value (giant foxtail; [3]) was 0. For the same compound, the “Giant foxtail plant response rating” value (giant foxtail; [4]) was 2, the “Plant response rating, Giant foxtail” value (giant foxtail; [5]) was 2 and the “Plant response rating, Giant foxtail” value (giant foxtail; [6]) was 3. The “Giant foxtail plant response rating” value (giant foxtail; [7]) was 8, the “Giant foxtail plant response rating” value (giant foxtail; [8]) was 3 and the “Velvetleaf plant response rating” value (velvetleaf; [1]) was 0. For the same compound, the “Velvetleaf plant response rating” value (velvetleaf; [2]) was 0, the “Velvetleaf plant response rating” value (velvetleaf; [4]) was 0 and the “Velvetleaf plant response rating (0 to 10 scale)” value (velvetleaf; [13]) was 0. For the same compound, the “Plant response rating, Velvetleaf” value (velvetleaf; [14]) was 0, the “Velvetleaf plant response rating” value (velvetleaf; [7]) was 0 and the “Plant response rating, Velvetleaf” value (velvetleaf; [15]) was 0. For the same compound, the “Velvetleaf plant response rating” value (velvetleaf; [8]) was 0, the “Cocklebur plant response rating” value (cocklebur; [1]) was 0 and the “Cocklebur plant response rating” value (cocklebur; [2]) was 0. The “Cocklebur plant response rating” value (cocklebur; [3]) was 0, the “Cocklebur plant response rating” value (cocklebur; [4]) was 0 and the “Plant response rating, Cocklebur” value (cocklebur; [5]) was 0. The “Plant response rating, Cocklebur” value (cocklebur; [6]) was 0, the “Cocklebur plant response rating” value (cocklebur; [7]) was 0 and the “Cocklebur plant response rating” value (cocklebur; [8]) was 2. The “B. signalgrass plant response rating” value (surinam grass; [1]) was 0, the “B. signalgrass plant response rating” value (surinam grass; [3]) was 0 and the “B. signalgrass plant response rating” value (surinam grass; [4]) was 0. The “Plant response rating, B. signalgrass” value (surinam grass; [5]) was 0, the “Plant response rating, B. signalgrass” value (surinam grass; [6]) was 1 and the “B. signalgrass plant response rating” value (surinam grass; [7]) was 2. For the same compound, the “B. signalgrass plant response rating” value (surinam grass; [16]) was 0, the “B. signalgrass plant response rating” value (surinam grass; Rate 500 g/ha, Postemergence, scale of 0 to 10 where 0 is no effect and 10 is complete control) was 0 and the “Corn plant response rating” value (corn; [1]) was 0. The “Corn plant response rating” value (corn; [2]) was 0, the “Corn plant response rating” value (corn; [3]) was 0 and the “Corn plant response rating” value (corn; [4]) was 0. The “Plant response rating, Corn” value (corn; [5]) was 0, the “Plant response rating, Corn” value (corn; [6]) was 0 and the “Corn plant response rating” value (corn; [7]) was 0. The “Corn plant response rating” value (corn; [8]) was 0, the “Bedstraw plant response rating” value (bedstraw; [1]) was 0 and the “Bedstraw plant response rating” value (bedstraw; [3]) was 0. The “Bedstraw plant response rating” value (bedstraw; [4]) was 0, the “Plant response rating, Bedstraw” value (bedstraw; [5]) was 0 and the “Plant response rating, Bedstraw” value (bedstraw; [6]) was 0. For the same compound, the “Bedstraw plant response rating” value (bedstraw; [7]) was 2, the “Bedstraw plant response rating” value (bedstraw; [16]) was 0 and the “Bedstraw plant response rating” value (bedstraw; [8]) was 0. For the same compound, the “S. Flatsedge plant response rating” value (smallflower flatsedge; [9]) was 0, the “S. Flatsedge plant response rating” value (smallflower flatsedge; [1]) was 0 and the “Plant response rating, S. Flatsedge” value (smallflower flatsedge; Rate 250 g/ha, Postemergence (flood test), scale 0 to 10, 0 is no effect, 10 is complete control) was 0. The “S. Flatsedge plant response rating” value (smallflower flatsedge; [10]) was 3.
